Data: patent US20230278972A1, “SUBSTITUTED HALOALKYL SULFONANILIDE HERBICIDES” (FMC Corporation, priority 2020, published 2023)

What was measured:
Format in all cases: in vivo
[1] = system: barnyardgrass (Echinochloa crus-galli); experiment: Test A preemergence, barnyardgrass; conditions: Preemergence, 0 to 100 scale (0 no effect, 100 complete control)
Procedure, shortened: (§1)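 Formulated with a surfactant in a non-phytotoxic solvent, compounds are applied to loam–sand pots, either to bare soil immediately after seeding (preemergence) or to seedlings of 2 to 10 cm bearing one to two leaves (postemergence).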

[2] = system: kochia (Bassia scoparia); experiment: Test A preemergence, kochia; conditions: Preemergence; for Plant response rating, Kochia: 125 g ai/ha, visual injury, 0 to 100 scale (0 no effect, 100 complete control), approx. 10 days; for Kochia plant response rating: 500 g ai/ha, visual injury on 0 to 100 scale (0 no effect, 100 complete control), approximately 10 days
Procedure, shortened: as §1

[3] = system: ragweed (common ragweed, Ambrosia artemisiifolia); experiment: Test A preemergence, ragweed; conditions: Preemergence; for Plant response rating, Ragweed: 125 g ai/ha, visual injury, 0 to 100 scale (0 no effect, 100 complete control), approx. 10 days; for Ragweed plant response rating: 500 g ai/ha, visual injury on 0 to 100 scale (0 no effect, 100 complete control), approximately 10 days
Procedure, shortened: as §1

[4] = system: Ryegrass, Italian (Italian ryegrass, Lolium multiflorum); experiment: Test A preemergence, Ryegrass, Italian; conditions: Preemergence; for Plant response rating, Ryegrass, Italian: 125 g ai/ha, visual injury, 0 to 100 scale (0 no effect, 100 complete control), approx. 10 days; for Ryegrass, Italian plant response rating: 500 g ai/ha, visual injury on 0 to 100 scale (0 no effect, 100 complete control), approximately 10 days
Procedure, shortened: as §1

[5] = system: Foxtail, Giant (giant foxtail, Setaria faberi); experiment: Test A preemergence, Foxtail, Giant; conditions: Preemergence; for Plant response rating, Foxtail, Giant: 125 g ai/ha, visual injury, 0 to 100 scale (0 no effect, 100 complete control), approx. 10 days; for Foxtail, Giant plant response rating: 500 g ai/ha, visual injury on 0 to 100 scale (0 no effect, 100 complete control), approximately 10 days
Procedure, shortened: as §1

[6] = system: pigweed (Amaranthus retroflexus); experiment: Test A preemergence, pigweed; conditions: for Plant response rating, Pigweed: 125 g ai/ha, visual injury, 0 to 100 scale (0 no effect, 100 complete control), approx. 10 days; for Pigweed plant response rating: 500 g ai/ha, visual injury on 0 to 100 scale (0 no effect, 100 complete control), approximately 10 days
Procedure, shortened: (§2)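 After sowing into a sand-amended loam, pots for the preemergence test were treated by spraying directly onto soil. In parallel, seedlings at the one- to two-leaf stage and 2 to 10 cm tall were treated postemergence with the identical surfactant-containing formulation.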

[7] = system: barnyardgrass (Echinochloa crus-galli); experiment: Test A postemergence, barnyardgrass; conditions: Postemergence, 0 to 100 scale (0 no effect, 100 complete control); for Plant response rating, Barnyardgrass: 125 g ai/ha; for Barnyardgrass plant response rating: 500 g ai/ha, visual injury vs untreated controls after approx. 10 days
Procedure, shortened: as §2

[8] = system: kochia (Bassia scoparia); experiment: Test A postemergence, kochia; conditions: Postemergence, 0 to 100 scale (0 no effect, 100 complete control); for Plant response rating, Kochia: 125 g ai/ha; for Kochia plant response rating: 500 g ai/ha, visual injury vs untreated controls after approx. 10 days
Procedure, shortened: as §1

[9] = system: ragweed (common ragweed, Ambrosia artemisiifolia); experiment: Test A postemergence, ragweed; conditions: Postemergence, 0 to 100 scale (0 no effect, 100 complete control); for Plant response rating, Ragweed: 125 g ai/ha; for Ragweed plant response rating: 500 g ai/ha, visual injury vs untreated controls after approx. 10 days
Procedure, shortened: as §1

[10] = system: Ryegrass, Italian (Italian ryegrass, Lolium multiflorum); experiment: Test A postemergence, Ryegrass, Italian; conditions: Postemergence, 0 to 100 scale (0 no effect, 100 complete control); for Plant response rating, Ryegrass, Italian: 125 g ai/ha; for Ryegrass, Italian plant response rating: 500 g ai/ha, visual injury vs untreated controls after approx. 10 days
Procedure, shortened: as §1

[11] = system: Foxtail, Giant (giant foxtail, Setaria faberi); experiment: Test A postemergence, Foxtail, Giant; conditions: Postemergence, 0 to 100 scale (0 no effect, 100 complete control); for Plant response rating, Foxtail, Giant: 125 g ai/ha; for Foxtail, Giant plant response rating: 500 g ai/ha, visual injury vs untreated controls after approx. 10 days
Procedure, shortened: as §1

[12] = system: pigweed (Amaranthus retroflexus); experiment: Test A postemergence, pigweed; conditions: Postemergence, 0 to 100 scale (0 no effect, 100 complete control); for Plant response rating, Pigweed: 125 g ai/ha; for Pigweed plant response rating: 500 g ai/ha, visual injury vs untreated controls after approx. 10 days
Procedure, shortened: as §1

[13] = system: wheat (Triticum aestivum); experiment: Test A postemergence, wheat; conditions: Postemergence, 0 to 100 scale (0 no effect, 100 complete control); for Plant response rating, Wheat: 125 g ai/ha; for Wheat plant response rating: 500 g ai/ha, visual injury vs untreated controls after approx. 10 days
Procedure, shortened: as §2

[14] = system: corn (Zea mays); experiment: Test A postemergence, corn; conditions: Postemergence, 0 to 100 scale (0 no effect, 100 complete control); for Plant response rating, Corn: 125 g ai/ha; for Corn plant response rating: 500 g ai/ha, visual injury vs untreated controls after approx. 10 days
Procedure, shortened: as §1

[15] = system: blackgrass (Alopecurus myosuroides); experiment: Test A postemergence, blackgrass; conditions: Postemergence, 0 to 100 scale (0 no effect, 100 complete control); for Plant response rating, Blackgrass: 125 g ai/ha; for Blackgrass plant response rating: 500 g ai/ha, visual injury vs untreated controls after approx. 10 days
Procedure, shortened: as §1

[16] = system: galium (catchweed bedstraw, Galium aparine); experiment: Test A postemergence, galium; conditions: Postemergence, 0 to 100 scale (0 no effect, 100 complete control); for Plant response rating, Galium: 125 g ai/ha; for Galium plant response rating: 500 g ai/ha, visual injury vs untreated controls after approx. 10 days
Procedure, shortened: as §2

[17] = 125 g ai/ha, visual injury, approx. 10 days

Row | SMILES | Plant response rating, Barnyardgrass [1, 17] | Plant response rating, Barnyardgrass ([1]; 500 g ai/ha) | Plant response rating, Kochia [2] | Kochia plant response rating [2] | Plant response rating, Ragweed [3] | Ragweed plant response rating [3] | Plant response rating, Ryegrass, Italian [4] | Ryegrass, Italian plant response rating [4] | Plant response rating, Foxtail, Giant [5] | Foxtail, Giant plant response rating [5] | Plant response rating, Pigweed [6] | Pigweed plant response rating [6] | Plant response rating, Barnyardgrass [7] | Barnyardgrass plant response rating [7] | Plant response rating, Kochia [8] | Kochia plant response rating [8] | Plant response rating, Ragweed [9] | Ragweed plant response rating [9] | Plant response rating, Ryegrass, Italian [10] | Ryegrass, Italian plant response rating [10] | further results
1 | Cc1cc(C)c(C(=O)N2CCC(CC(F)(F)F)CC2)cc1NS(=O)(=O)C(F)(F)F [Compound 234] | 80 | 80 | 0 | 30 | 80 | 90 | 20 | 50 | 50 | 50 | 50 | 100 | 60 | 70 | 0 | 0 | 30 | 50 | 0 | 0 | Plant response rating, Foxtail, Giant [11]: 0; Foxtail, Giant plant response rating [11]: 50; Plant response rating, Pigweed [12]: 30; Pigweed plant response rating [12]: 60; Plant response rating, Wheat [13]: 0; Wheat plant response rating [13]: 0; Plant response rating, Corn [14]: 0; Corn plant response rating [14]: 0; Plant response rating, Blackgrass [15]: 0; Blackgrass plant response rating [15]: 0; Plant response rating, Galium [16]: 10; Galium plant response rating [16]: 80
2 | Cc1cc(F)c(C(=O)N2CC(C)OC(C)C2)cc1N(S(=O)(=O)C(F)(F)F)S(=O)(=O)C(F)(F)F (stereo not shown) [Compound 235] | 0 | 0 | 30 | 50 | 40 | 80 | 50 | 90 | 10 | 10 | 30 | 80 | 0 | 60 | 10 | 30 | 60 | 90 | 30 | 60 | Plant response rating, Foxtail, Giant [11]: 20; Foxtail, Giant plant response rating [11]: 30; Plant response rating, Pigweed [12]: 30; Pigweed plant response rating [12]: 30; Plant response rating, Wheat [13]: 20; Wheat plant response rating [13]: 60; Plant response rating, Corn [14]: 0; Corn plant response rating [14]: 30; Plant response rating, Blackgrass [15]: 0; Blackgrass plant response rating [15]: 20; Plant response rating, Galium [16]: 70; Galium plant response rating [16]: 70
3 | Cc1cc(F)c(C(=O)N2CCC(C#N)CC2)cc1NS(=O)(=O)C(F)(F)F [Compound 236] | 0 | 0 | 20 | 70 | 50 | 80 | 20 | 60 | 30 | 60 | 60 | 90 | 50 | 60 | 30 | 50 | 40 | 80 | 30 | 60 | Plant response rating, Foxtail, Giant [11]: 20; Foxtail, Giant plant response rating [11]: 80; Plant response rating, Pigweed [12]: 40; Pigweed plant response rating [12]: 60; Plant response rating, Wheat [13]: 0; Wheat plant response rating [13]: 0; Plant response rating, Corn [14]: 0; Corn plant response rating [14]: 20; Plant response rating, Blackgrass [15]: 0; Blackgrass plant response rating [15]: 20; Plant response rating, Galium [16]: 40; Galium plant response rating [16]: 70
4 | Cc1cc(F)c(C(=O)N2CCOCC2)cc1N(S(=O)(=O)C(F)(F)F)S(=O)(=O)C(F)(F)F [Compound 237] | 40 | 30 | 90 | 90 | 30 | 80 | 20 | 50 | 20 | 40 | 80 | 100 | 20 | 40 | 70 | 90 | 50 | 80 | 40 | 40 | Plant response rating, Foxtail, Giant [11]: 20; Foxtail, Giant plant response rating [11]: 40; Plant response rating, Pigweed [12]: 30; Pigweed plant response rating [12]: 60; Plant response rating, Wheat [13]: 0; Wheat plant response rating [13]: 0; Plant response rating, Corn [14]: 0; Corn plant response rating [14]: 20; Plant response rating, Blackgrass [15]: 0; Blackgrass plant response rating [15]: 0; Plant response rating, Galium [16]: 0; Galium plant response rating [16]: 50
5 | Cc1cc(F)c(C(=O)N2CC(C)OC(C)C2)cc1NS(=O)(=O)C(F)(F)F (stereo not shown) [Compound 238] | 0 | 0 | 80 | 60 | 20 | 90 | 60 | 90 | 30 | 60 | 20 | 80 | 0 | 60 | 20 | 30 | 60 | 80 | 30 | 70 | Plant response rating, Foxtail, Giant [11]: 30; Foxtail, Giant plant response rating [11]: 70; Plant response rating, Pigweed [12]: 30; Pigweed plant response rating [12]: 80; Plant response rating, Wheat [13]: 60; Wheat plant response rating [13]: 70; Plant response rating, Corn [14]: 0; Corn plant response rating [14]: 0; Plant response rating, Blackgrass [15]: 0; Blackgrass plant response rating [15]: 30; Plant response rating, Galium [16]: 80; Galium plant response rating [16]: 80
